{
  "source": "patent US9993497B2",
  "about": "“Use of alginate compositions in preventing or reducing liver damage caused by a hepatotoxic agent” (HADASIT MEDICAL RESEARCH SERVICES AND DEVELOPMENT LTD., priority 2012, dated 2018)",
  "key": {"[1]": {"system": "paracetamol intoxicated mice", "assay": "Nitrotyrosine staining of liver tissue (oxidative stress)", "assay_type": "in vivo, mice (C57BL/6)", "conditions": "4 mg paracetamol alone", "protocol": "(§1) Briefly, necrosis staining was as follows: sections were first de-paraffinized and then were incubated with rabbit polyclonal IgG. Sections were then incubated with secondary antibody using the MACH 3 Rabbit HRP Polymer Detection and then dehydrated, cleared and mounted in synthetic resin. For color detection, DAB (3,3′-diaminobenzidine) was applied, followed by counterstaining Quantification of necrosis was carried out by the Ariol SL-50 system (Applied Imaging) on microscope slides. Nitrotyrosine and Ki-67 immunostaining staining was performed similarly, using a rabbit polyclonal anti-nitrotyrosine antibody (Abcam) or an anti-Ki-67 antibody (DAKO)."}, "[2]": {"system": "paracetamol intoxicated mice", "assay": "Ki-67 staining of liver tissue (cell proliferation)", "assay_type": "in vivo, mice (C57BL/6)", "conditions": "4 mg paracetamol alone", "protocol": "as §1"}},
  "data": [
    {"smiles": "CC(=O)Nc1ccc(O)cc1", "note": "[paracetamol, N-acetyl-p-aminophenol]", "values": [
      {"measurement": "Nitrotyrosine staining in liver", "setting": "[1]", "result": "extensive centrilobular nitrotyrosine staining"},
      {"measurement": "Cell proliferation in the liver (Ki-67 staining)", "setting": "[2]", "result": "widespread cell proliferation in the liver"}
    ]}
  ]
}
